From patent US9023998B2, “Near infrared fluorogen and fluorescent activating proteins for in vivo imaging and live-cell biosensing” (Carnegie Mellon University, priority 2013, dated 2015)

Key:
[1] = test system: S. cerevisiae expressing mL9.3 or mL9.5 surface-tethered; assay: Confocal imaging of yeast with surface-tethered FAPs; assay type: cell-based; conditions: 100 nM fluorogen, excitation 641 nm, emission 794/160
From the text: Plasmids pPNL6-mL9.3 and pPNL6-mL9.5 for yeast cell surface display were produced by PCR amplification of mL9.3 (SEQ. ID. NO. 23) and mL9.5 (SEQ. ID. NO. 24) from pPNL6-dL9.2 and pPNL6-dL9.5, respectively, using primers pCTCON2F (CGACGATTGAAGGTAGATACCCATACGACGTTCCAGACTACGCTCTGCAG) (SEQ. ID. NO. 29) and p6 mL9XRv (TCTCGATGCGGCCGCTTAAGACAAAACAGTAACTTTAGTACCACC) (SEQ. ID. NO. 30). Amplicons were digested with NheI and NotI prior to ligation into a like-digested pPNL6 vector backbone. Ligated plasmids were transformed into E. coli (NEB 10β) by heat-shock, and plasmids from single colonies were sequenced to verify identity. Upon verification, purified stocks of each plasmid were introduced into S. cerevisiae strain JAR200 via electroporation. Transformed cells were induced in the manner described in Szent-Gyorgyi, et al. 2008 for 96 hours prior to imaging. Cells were adhered to concanavalin A-coated glass-bottom dishes (MatTek Corporation) for 10 minutes at room temperature. […] Images of fluorescence (FIG. 12, NIR:794/160) were obtained by excitation with a 641 nm laser, and emission was collected through a 794/160 bandpass filter (Semrock) by an iXon3 EMCCD (DU897 BV). […]

[2] = test system: dL9.5 (SEQ. ID. NO. 3); assay: Binding of fluorogen by FAP dL9.5
From the text: The V70A mutation was propagated to both light chains to produce dL9.3 (SEQ. ID. NO. 31), which was immediately subjected to mutagenesis and screening in the surface-display format described previously (Chao, et al., Nature Protocols (2006)) in the presence of SKC602. The brightest clone collected from this screen was designated dL9.5 (SEQ. ID. NO. 3), and sequencing described exactly two mutations—tyrosine 96 to histidine—on both light chains.

Row | Compound | NIR fluorescence of fluorogen alone in non-expressing yeast [1] | Binding by dL9.5 [2]
1 | CN(C)c1ccc(C(/C=C/c2ccc(N(C)CCCCC(=O)NC(CCS(=O)(=O)O)C(=O)O)cc2)=C2C=CC(=[N+](C)C)C=C2)cc1 (stereo not drawn) [SKC728] | do not cause NIR fluorescence in the absence of cognate FAP | bind
2 | CN(C)c1ccc(/C=C/C(=C2C=CC(=[N+](C)C)C=C2)c2ccc(N(C)C)cc2)cc1 [SKC602, (E)-N-(4-(1,3-bis(4-(dimethylamino)phenyl)allylidene)cyclohexa-2,5-dien-1-ylidene)-N-methylmethanaminium] | do not cause NIR fluorescence in the absence of cognate FAP | –
